Test systems include M14 melanoma; MOLT-4 leukemia; NCI/ADR-RES ovarian; OVCAR-8 ovarian; RPMI-8226 leukemia; SK-OV-3 ovarian; SN12C renal; MCF7 breast.
What all share (assay): inhibition of tumour cell growth, NCI panel, 48 h

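Results reflect a 48-hour exposure of cells in 96-well plates to compound at five concentrations. The concentration for 50% growth inhibition is given as GI50. TGI: concentration producing complete growth inhibition.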

In the case of `CC(=O)C(=CN1CCN(C(=O)c2ccco2)C1=S)C(C)=O`, the GI50 was 4.03 µM in the test with M14 melanoma; 8.2 µM with MOLT-4 leukemia; 23.2 µM with NCI/ADR-RES ovarian; 8.15 µM in the test with OVCAR-8 ovarian; 2.74 µM in the test with RPMI-8226 leukemia; 20 µM in the test with SK-OV-3 ovarian. Besides, the GI50 with SN12C renal was 2.57 µM. In addition, the TGI was 15.4 µM in the test with M14 melanoma; above 100 µM with MOLT-4 leukemia; 56.6 µM in the test with NCI/ADR-RES ovarian; 45.1 µM in the test with OVCAR-8 ovarian; above 100 µM in the test on RPMI-8226 leukemia; 43.9 µM in the test with SK-OV-3 ovarian. This molecule also came in with a TGI with SN12C renal of 7.11 µM.
In the case of `CC1=C(O)C(=O)C=C2C1=CC=C1[C@@]2(C)CC[C@@]2(C)[C@@H]3C[C@](C)(C(=O)O)CC[C@]3(C)CC[C@]12C`, the TGI turned out to be 0.141 µM in the test with M14 melanoma; 0.266 µM with MCF7 breast; 0.107 µM with NCI/ADR-RES ovarian; 0.0712 µM in the test on OVCAR-8 ovarian; 0.0585 µM in the test with RPMI-8226 leukemia; 1 µM with SK-OV-3 ovarian. This molecule registered a TGI in the test on SN12C renal of 0.142 µM.
In the case of `CC1=C[C@H]2c3c(c(O)c(O)c4oc(-c5ccccc5)cc(=O)c34)[C@H](c3cc(O)c(O)c4oc(-c5ccccc5)cc(=O)c34)[C@H]2C(C)(C)C1`, the GI50 in the test on M14 melanoma is 0.887 µM; in the test with MCF7 breast, 0.597 µM; in the test with MOLT-4 leukemia, 0.988 µM; with NCI/ADR-RES ovarian, 3.55 µM; with OVCAR-8 ovarian it was 0.68 µM; in the test on SK-OV-3 ovarian, 1.76 µM. Further, in the test with SN12C renal, the GI50 was 1.09 µM. For the same molecule, the TGI was 4.88 µM with M14 melanoma; 9.16 µM with MCF7 breast; above 75 µM in the test with MOLT-4 leukemia; 25.3 µM with NCI/ADR-RES ovarian; above 75 µM in the test on OVCAR-8 ovarian; 10.9 µM in the test on SK-OV-3 ovarian. Moreover, the TGI in the test with SN12C renal came out at 7.31 µM.
Consider `CCCCCCCCCCCCCCCCCCOc1ccccc1CC(=O)OCC[N+]1(C)CCCC1`, for which the GI50 in the test with M14 melanoma is 2.28 µM; in the test on MCF7 breast, 2.11 µM; in the test with MOLT-4 leukemia, 2.12 µM; in the test on NCI/ADR-RES ovarian, 15.1 µM; in the test with SK-OV-3 ovarian, 18.9 µM; in the test with SN12C renal, 1.94 µM. For the same molecule, the TGI with M14 melanoma turned out to be 5.46 µM; in the test on MCF7 breast it was 4.76 µM; in the test with MOLT-4 leukemia, 4.95 µM; in the test with NCI/ADR-RES ovarian, 42.4 µM; with SK-OV-3 ovarian, 38.8 µM; in the test with SN12C renal it was 4.27 µM.
As for `CC1=CC(C/C(C)=C/COc2ccc3ccc(=O)oc3c2)OC1=O` (stereo not given), the TGI with M14 melanoma, in the test with MCF7 breast, in the test with MOLT-4 leukemia, with NCI/ADR-RES ovarian, with OVCAR-8 ovarian and with SK-OV-3 ovarian was above 100 µM in each case. Further, in the test with SN12C renal, the TGI was above 100 µM.
Regarding `Cn1c2ccccc2c(=O)c2ccc(Cl)cc21`, the TGI in the test on MCF7 breast, in the test on MOLT-4 leukemia, in the test on OVCAR-8 ovarian, in the test with RPMI-8226 leukemia, with SK-OV-3 ovarian and in the test on SN12C renal was above 10 µM in each case.
As for `CN(C)CCN1C(=O)c2ccc3c4c(ccc(c24)C1=O)C(=O)N(CCN=C=S)C3=O`, the GI50 with M14 melanoma is 0.0735 µM; in the test on MCF7 breast it was 0.0257 µM; in the test with NCI/ADR-RES ovarian, 0.0524 µM; with OVCAR-8 ovarian, 0.0288 µM; in the test on RPMI-8226 leukemia it was 0.0318 µM; with SK-OV-3 ovarian it was 0.164 µM. For the same molecule, the GI50 with SN12C renal was 0.0364 µM. In addition, the TGI with M14 melanoma was 0.216 µM; with MCF7 breast, 0.129 µM; with NCI/ADR-RES ovarian it was 0.495 µM; in the test on OVCAR-8 ovarian it was 0.173 µM; with RPMI-8226 leukemia it was 0.197 µM; in the test on SK-OV-3 ovarian, 0.668 µM. In the test with SN12C renal, this molecule had a TGI of 0.177 µM.
As for `O=c1cc(NC2CCN(CCCc3ccccc3)CC2)c2cc(Cl)ccc2o1`, the GI50 in the test with MCF7 breast is 9.42 µM; with MOLT-4 leukemia, 8.26 µM; with NCI/ADR-RES ovarian, 15 µM; with OVCAR-8 ovarian, 12.1 µM; in the test on RPMI-8226 leukemia, 16.5 µM; with SK-OV-3 ovarian, 16.1 µM. For the same molecule, the GI50 with SN12C renal is 13 µM. The TGI in the test on MCF7 breast stood at 26.9 µM; with MOLT-4 leukemia it was 37.9 µM; in the test on NCI/ADR-RES ovarian it was 30.4 µM; with OVCAR-8 ovarian, 27.2 µM; in the test with RPMI-8226 leukemia, 43.4 µM; in the test on SK-OV-3 ovarian, 29.8 µM. Further, the TGI in the test on SN12C renal is 28.2 µM.
In the case of `Nc1ccc(-c2nc3ccc(Cc4ccc5nc(-c6ccc(N)cc6)[nH]c5c4)cc3[nH]2)cc1`, the GI50 with NCI/ADR-RES ovarian is above 100 µM; with OVCAR-8 ovarian, 2.48 µM; in the test with RPMI-8226 leukemia, 25.7 µM; in the test on SK-OV-3 ovarian, 18.9 µM; in the test with SN12C renal, 8.75 µM. Further, the TGI was above 100 µM with NCI/ADR-RES ovarian; 6.58 µM with OVCAR-8 ovarian; above 100 µM in the test with RPMI-8226 leukemia; 40.6 µM with SK-OV-3 ovarian; 29 µM with SN12C renal.
Consider `COc1cccc(C#Cc2ccccc2C#CCCCCO)c1`, for which the GI50 with MCF7 breast is 16.1 µM; in the test on MOLT-4 leukemia, 3.82 µM; with NCI/ADR-RES ovarian, 5.44 µM; with OVCAR-8 ovarian it was 12.5 µM; with RPMI-8226 leukemia, 3.77 µM; in the test with SK-OV-3 ovarian, 17.2 µM. The GI50 with SN12C renal is 11.6 µM. For the same molecule, the TGI stood at 41.1 µM in the test on MCF7 breast; 53.1 µM in the test with MOLT-4 leukemia; 20 µM in the test on NCI/ADR-RES ovarian; 27.9 µM in the test on OVCAR-8 ovarian; 26.4 µM in the test on RPMI-8226 leukemia; 32.5 µM in the test with SK-OV-3 ovarian. In addition, the TGI in the test with SN12C renal came out at 27 µM.
Regarding `O=C1CC2c3ccccc3CCC2c2ccccc21` (stereo not given), the TGI with M14 melanoma is 33.4 µM; in the test with MCF7 breast, above 100 µM; in the test with MOLT-4 leukemia, above 100 µM; in the test with OVCAR-8 ovarian, 53.9 µM; with RPMI-8226 leukemia, above 100 µM; with SK-OV-3 ovarian, above 100 µM.
Regarding `CC(CO)(CO)NCCCCn1ccc2c1C(=O)c1c(c(O)c3ccccc3c1O)C2=O`, the GI50 was 1.73 µM in the test with M14 melanoma; 17.1 µM in the test on MCF7 breast; 2.36 µM with NCI/ADR-RES ovarian; 3.48 µM with OVCAR-8 ovarian; 27.4 µM in the test with SK-OV-3 ovarian; 11.2 µM in the test with SN12C renal. For the same molecule, the TGI turned out to be 3.41 µM in the test with M14 melanoma; 53.4 µM with MCF7 breast; 6.02 µM with NCI/ADR-RES ovarian; 12 µM in the test on OVCAR-8 ovarian; 98.7 µM with SK-OV-3 ovarian; 24.2 µM in the test with SN12C renal.

The values are drawn from PubChem BioAssay (NCI).
